Laboratory results reported in patent US7329650B2, “Peptides and peptide analogues designed from HFE protein and their uses in the treatment of iron overload diseases” (Bio-Rad Laboratories, Inc., priority 1998, dated 2008).
Ends that are not written are not given here.

Target: T1, transferrin receptor (TfR) (Homo sapiens, UniProt P02786)
T1 construct: HeLa cells were grown to 80-90% confluence at 37° C. at 5% CO2; endogenous in cells; host or cells: HeLa cells
Assay: Measurement of cell-associated transferrin (labeled transferrin binding to HeLa cells, Scatchard analysis)
Conditions: for effect on TfR affinity for transferrin (in words): HeLa cells, peptide 50 μM or soluble HFE/β2m 100 nM alone

T1 sequence (P02786 whole entry): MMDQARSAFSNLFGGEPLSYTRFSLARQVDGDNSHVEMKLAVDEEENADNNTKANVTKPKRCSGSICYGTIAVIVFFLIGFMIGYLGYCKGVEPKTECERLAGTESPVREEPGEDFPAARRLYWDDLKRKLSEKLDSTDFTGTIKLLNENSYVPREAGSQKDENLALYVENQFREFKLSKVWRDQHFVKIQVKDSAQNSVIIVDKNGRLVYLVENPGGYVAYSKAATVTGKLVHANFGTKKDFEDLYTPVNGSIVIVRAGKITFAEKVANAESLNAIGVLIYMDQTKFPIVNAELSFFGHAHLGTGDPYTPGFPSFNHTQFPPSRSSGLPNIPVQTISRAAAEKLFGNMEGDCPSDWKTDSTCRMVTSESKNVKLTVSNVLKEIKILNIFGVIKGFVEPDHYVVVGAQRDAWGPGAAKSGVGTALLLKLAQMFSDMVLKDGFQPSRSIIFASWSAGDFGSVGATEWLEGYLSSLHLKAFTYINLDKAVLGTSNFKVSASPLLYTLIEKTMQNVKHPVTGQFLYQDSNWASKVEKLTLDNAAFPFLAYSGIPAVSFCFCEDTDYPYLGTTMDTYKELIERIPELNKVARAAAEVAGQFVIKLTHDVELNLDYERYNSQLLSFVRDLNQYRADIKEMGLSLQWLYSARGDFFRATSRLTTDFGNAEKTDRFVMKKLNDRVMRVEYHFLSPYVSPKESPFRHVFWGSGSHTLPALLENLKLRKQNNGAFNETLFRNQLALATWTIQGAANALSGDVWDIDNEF

Row | effect on TfR affinity for transferrin (in words) (FIG. 2 experiment) | effect on TfR affinity for transferrin (in words) (FIG. 3 experiment) | increase of KD of TfR for transferrin versus HeLa cells alone (FIG. 1 experiment, peptide 50 μM or soluble HFE/β2m 100 nM) | Sequence
1 | little effect | little effect |  | GWDHMFTVDFATIMENH [G-(17)-H (Ala)]
2 |  | significant increase in KD | approximately 2 fold | GWDHMFTVDFWTIMENH [G-(17)-H (Trp)]
